Experimental data published in the NIST ThermoML archive (doi:10.1021/acs.jced.9b00074).
± gives the expanded uncertainty stated by the source.

Assay: xn = mol fraction of the nth substance listed
Settings: 100 kPa, Liquid; for viscosity: Falling or rolling sphere viscometry; for mass density: Vibrating tube method

OC1CCCC1 [cyclopentanol] + C1C[C@@H]2[C@H]3CC[C@H](C3)[C@@H]2C1
Settings	mass density [kg/m3]	viscosity [mPa·s]
293.15 K, x1 = 0.101	935.59 ± 0.66	3.091 ± 0.069
293.15 K, x1 = 0.201	935.84 ± 0.63	3.26 ± 0.072
293.15 K, x1 = 0.296	936.28 ± 0.61	3.471 ± 0.076
293.15 K, x1 = 0.3962	937.08 ± 0.59	3.794 ± 0.083
293.15 K, x1 = 0.5016	938.1 ± 0.58	4.304 ± 0.093
293.15 K, x1 = 0.6017	939.39 ± 0.58	5.009 ± 0.11
293.15 K, x1 = 0.7011	940.96 ± 0.57	5.976 ± 0.13
293.15 K, x1 = 0.7968	942.64 ± 0.57	7.24 ± 0.15
293.15 K, x1 = 0.9005	944.8 ± 0.57	9.125 ± 0.19
298.15 K, x1 = 0.101	931.59 ± 0.66	2.829 ± 0.063
298.15 K, x1 = 0.201	931.81 ± 0.63	2.917 ± 0.064
298.15 K, x1 = 0.296	932.23 ± 0.61	3.093 ± 0.068
298.15 K, x1 = 0.3962	932.99 ± 0.59	3.355 ± 0.073
298.15 K, x1 = 0.5016	934 ± 0.58	3.762 ± 0.081
298.15 K, x1 = 0.6017	935.27 ± 0.57	4.32 ± 0.093
298.15 K, x1 = 0.7011	936.86 ± 0.57	5.083 ± 0.11
298.15 K, x1 = 0.7968	938.57 ± 0.57	6.076 ± 0.13
298.15 K, x1 = 0.9005	940.78 ± 0.57	7.555 ± 0.16
303.15 K, x1 = 0.101	927.56 ± 0.65	2.564 ± 0.057
303.15 K, x1 = 0.201	927.75 ± 0.63	2.623 ± 0.058
303.15 K, x1 = 0.296	928.14 ± 0.61	2.774 ± 0.061
303.15 K, x1 = 0.3962	928.88 ± 0.59	2.987 ± 0.065
303.15 K, x1 = 0.5016	929.87 ± 0.58	3.316 ± 0.072
303.15 K, x1 = 0.6017	931.12 ± 0.57	3.761 ± 0.081
303.15 K, x1 = 0.7011	932.71 ± 0.57	4.367 ± 0.093
303.15 K, x1 = 0.7968	934.45 ± 0.57	5.154 ± 0.11
303.15 K, x1 = 0.9005	936.7 ± 0.57	6.316 ± 0.13
308.15 K, x1 = 0.101	923.52 ± 0.65	2.329 ± 0.052
308.15 K, x1 = 0.201	923.67 ± 0.62	2.376 ± 0.052
308.15 K, x1 = 0.296	924.03 ± 0.6	2.499 ± 0.055
308.15 K, x1 = 0.3962	924.74 ± 0.59	2.674 ± 0.058
308.15 K, x1 = 0.5016	925.71 ± 0.58	2.941 ± 0.064
308.15 K, x1 = 0.6017	926.94 ± 0.57	3.298 ± 0.071
308.15 K, x1 = 0.7011	928.53 ± 0.57	3.78 ± 0.081
308.15 K, x1 = 0.7968	930.28 ± 0.56	4.407 ± 0.094
308.15 K, x1 = 0.9005	932.57 ± 0.56	5.324 ± 0.11
313.15 K, x1 = 0.101	919.47 ± 0.65	2.122 ± 0.047
313.15 K, x1 = 0.201	919.57 ± 0.62	2.156 ± 0.048
313.15 K, x1 = 0.296	919.9 ± 0.6	2.261 ± 0.05
313.15 K, x1 = 0.3962	920.57 ± 0.59	2.404 ± 0.052
313.15 K, x1 = 0.5016	921.52 ± 0.57	2.62 ± 0.057
313.15 K, x1 = 0.6017	922.73 ± 0.57	2.908 ± 0.062
313.15 K, x1 = 0.7011	924.31 ± 0.56	3.296 ± 0.071
313.15 K, x1 = 0.7968	926.07 ± 0.56	3.796 ± 0.081
313.15 K, x1 = 0.9005	928.4 ± 0.56	4.527 ± 0.096
318.15 K, x1 = 0.101	915.4 ± 0.65	1.94 ± 0.043
318.15 K, x1 = 0.201	915.45 ± 0.62	1.965 ± 0.043
318.15 K, x1 = 0.296	915.74 ± 0.6	2.053 ± 0.045
318.15 K, x1 = 0.3962	916.37 ± 0.58	2.171 ± 0.047
318.15 K, x1 = 0.5016	917.29 ± 0.57	2.348 ± 0.051
318.15 K, x1 = 0.6017	918.48 ± 0.56	2.58 ± 0.055
318.15 K, x1 = 0.7011	920.05 ± 0.56	2.893 ± 0.062
318.15 K, x1 = 0.7968	921.82 ± 0.56	3.293 ± 0.07
318.15 K, x1 = 0.9005	924.18 ± 0.56	3.878 ± 0.082
323.15 K, x1 = 0.101	911.31 ± 0.64	1.779 ± 0.04
323.15 K, x1 = 0.201	911.3 ± 0.62	1.799 ± 0.04
323.15 K, x1 = 0.296	911.55 ± 0.6	1.871 ± 0.041
323.15 K, x1 = 0.3962	912.15 ± 0.58	1.968 ± 0.043
323.15 K, x1 = 0.5016	913.03 ± 0.57	2.112 ± 0.046
323.15 K, x1 = 0.6017	914.19 ± 0.56	2.302 ± 0.049
323.15 K, x1 = 0.7011	915.74 ± 0.56	2.554 ± 0.055
323.15 K, x1 = 0.7968	917.51 ± 0.56	2.876 ± 0.061
323.15 K, x1 = 0.9005	919.9 ± 0.56	3.346 ± 0.071
328.15 K, x1 = 0.101	907.2 ± 0.64	1.639 ± 0.037
328.15 K, x1 = 0.201	907.12 ± 0.61	1.65 ± 0.036
328.15 K, x1 = 0.296	907.33 ± 0.59	1.711 ± 0.037
328.15 K, x1 = 0.3962	907.88 ± 0.58	1.791 ± 0.039
328.15 K, x1 = 0.5016	908.73 ± 0.57	1.908 ± 0.041
328.15 K, x1 = 0.6017	909.87 ± 0.56	2.063 ± 0.044
328.15 K, x1 = 0.7011	911.39 ± 0.56	2.268 ± 0.049
328.15 K, x1 = 0.7968	913.16 ± 0.55	2.527 ± 0.054
328.15 K, x1 = 0.9005	915.56 ± 0.55	2.906 ± 0.062
333.15 K, x1 = 0.101	903.08 ± 0.64	1.514 ± 0.034
333.15 K, x1 = 0.201	902.92 ± 0.61	1.521 ± 0.034
333.15 K, x1 = 0.296	903.08 ± 0.59	1.569 ± 0.034
333.15 K, x1 = 0.3962	903.59 ± 0.58	1.635 ± 0.036
333.15 K, x1 = 0.5016	904.4 ± 0.56	1.732 ± 0.037
333.15 K, x1 = 0.6017	905.5 ± 0.56	1.858 ± 0.04
333.15 K, x1 = 0.7011	907 ± 0.55	2.023 ± 0.043
333.15 K, x1 = 0.7968	908.75 ± 0.55	2.233 ± 0.048
333.15 K, x1 = 0.9005	911.17 ± 0.55	2.54 ± 0.054
